Among the test systems are A549; ACHN; BT-549; CCRF-CEM; COLO 205; HCT-15; HOP-62; KM12; NCI-H23; OVCAR-4; PC-3; RPMI-8226; SF-295; SF-539; SNB-75; U-251; UACC-62; DU-145; OVCAR-8; RXF 393.
Common to all, as to assay: NCI-60 cell line screen, 48 h

Each structure is given as a SMILES string.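 Compound exposure: 48 hours, 5 concentrations, 96-well plates. GI50 marks 50% less growth.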 Active and inactive are the calls of the source. No stated cut-off is given here; in the data, active = GI50 up to about 1.1 µM and inactive = higher.

Consider `CC(C)(C)OC/C=C(/CO)[C@@H]1C=C[C@H](O)C1`, for which the GI50 is > 100 µM (inactive) in the test with A549; > 100 µM (inactive) with ACHN; > 100 µM (inactive) in the test with BT-549; > 100 µM (inactive) with CCRF-CEM; > 100 µM (inactive) in the test on COLO 205; > 100 µM in the test with HCT-15. For the same molecule, the GI50 in the test on HOP-62, with KM12, with NCI-H23, in the test on OVCAR-4, in the test with PC-3 and with RPMI-8226 was > 100 µM (inactive) throughout. Also, the GI50 in the test on SF-295, in the test with SF-539, in the test with SNB-75, in the test with U-251 and with UACC-62 was > 100 µM (inactive) in each case.

As to `CCN(CC)COC(=S)S`, the GI50 with A549 is > 100 µM (inactive); in the test on ACHN, > 100 µM (inactive); with BT-549, > 94.6 µM (inactive); in the test on CCRF-CEM, 0.0162 µM (active); in the test on COLO 205, 78 µM (inactive); in the test with DU-145 it was 54.6 µM (inactive). Also, the GI50 with HCT-15 is > 100 µM; in the test with HOP-62, 48.8 µM (inactive); in the test with KM12, > 76.2 µM (inactive); with NCI-H23 it was > 100 µM (inactive); with OVCAR-4, 48.8 µM (inactive); with OVCAR-8, 42.4 µM (inactive). Further, the GI50 in the test with PC-3 is 33.3 µM (inactive); with SF-295, > 77.6 µM (inactive); in the test on SF-539, 90.6 µM (inactive); with SNB-75 it was 30.5 µM (inactive); with U-251 it was 30.3 µM (inactive); in the test on UACC-62, > 83 µM (inactive).

Regarding `c1ccc(/N=C2\SC(=NNc3ccccc3)S\C2=N/c2ccccc2)cc1`, the GI50 with A549 was 25.2 µM (inactive); in the test with ACHN it was > 100 µM (inactive); in the test with CCRF-CEM it was > 100 µM (inactive); in the test with COLO 205, 28.7 µM (inactive); in the test with DU-145, 62.2 µM (inactive); in the test on HCT-15 it was > 100 µM. Also, the GI50 is 44.5 µM (inactive) in the test on HOP-62; 6.12 µM (inactive) with KM12; > 100 µM (inactive) in the test with NCI-H23; > 100 µM (inactive) in the test on OVCAR-4; > 100 µM (inactive) in the test on OVCAR-8; 19.5 µM (inactive) in the test with PC-3. Moreover, the GI50 is > 100 µM (inactive) with RPMI-8226; 7.66 µM (inactive) with RXF 393; 25.6 µM (inactive) with SF-295; 62.5 µM (inactive) with SF-539; 85.7 µM (inactive) with SNB-75; 38.1 µM (inactive) with U-251. In addition, in the test on UACC-62, the GI50 is 4.13 µM (inactive).

As for `CN1C(=O)CC2CCCN2C1=O` (configuration not stated), the GI50 is > 100 µM (inactive) with A549; > 100 µM (inactive) in the test with ACHN; 4.27 µM (inactive) in the test with CCRF-CEM; > 100 µM (inactive) in the test with COLO 205; > 100 µM (inactive) with DU-145; > 100 µM in the test on HCT-15. Further, the GI50 in the test with HOP-62, in the test with KM12, with NCI-H23, in the test with OVCAR-4, in the test with OVCAR-8 and in the test with PC-3 was > 100 µM (inactive) throughout. Further, the GI50 in the test with RPMI-8226, in the test with RXF 393, in the test on SF-295, with SF-539, in the test with SNB-75 and in the test with U-251 was > 100 µM (inactive) throughout. Further, the GI50 in the test on UACC-62 was > 100 µM (inactive).

On to `CC1(N2CCOCC2)CC2C(=[N+]1[O-])CCC/C2=N/O` (configuration not stated), for which the GI50 with A549 was > 100 µM (inactive); in the test on ACHN, > 100 µM (inactive); in the test on BT-549, > 100 µM (inactive); in the test with CCRF-CEM it was > 100 µM (inactive); with HCT-15, > 100 µM; with HOP-62, > 100 µM (inactive). In addition, the GI50 in the test with KM12, in the test on NCI-H23, in the test on OVCAR-4, in the test with OVCAR-8, in the test on PC-3 and with RXF 393 was > 100 µM (inactive) in each case. Besides, the GI50 in the test with SF-295 was > 100 µM (inactive); in the test on SF-539, > 100 µM (inactive); in the test on SNB-75 it was 0.334 µM (active); in the test on U-251 it was > 100 µM (inactive); with UACC-62, > 100 µM (inactive).

As for `CC1C(c2ccccc2)O[B-](F)(c2ccccc2)[NH+]1C` (configuration not stated), the GI50 in the test with A549, in the test on ACHN, with BT-549, with CCRF-CEM, with COLO 205 and in the test with DU-145 was > 100 µM (inactive) in each case. The GI50 was > 100 µM in the test on HCT-15; > 100 µM (inactive) with HOP-62; > 100 µM (inactive) in the test on NCI-H23; > 100 µM (inactive) with OVCAR-4; > 100 µM (inactive) in the test on OVCAR-8; > 100 µM (inactive) in the test on PC-3. The GI50 with RPMI-8226 is > 100 µM (inactive); with SF-295, > 100 µM (inactive); in the test with SNB-75, 37.2 µM (inactive); with U-251 it was > 100 µM (inactive); in the test on UACC-62 it was > 100 µM (inactive).

On to `COc1ccc2cc1Oc1ccc(cc1)CC1c3cc(OC)c(cc3CCN1C)Oc1c(OC)c(OC)cc3c1C(C2)N(C)CC3` (configuration not stated), for which the GI50 with A549 was 17.5 µM (inactive); in the test with ACHN, 9.57 µM (inactive); in the test on BT-549, 10.8 µM (inactive); in the test on CCRF-CEM, 17.7 µM (inactive); in the test with COLO 205, 2.49 µM (inactive); with DU-145, 12.6 µM (inactive). Further, the GI50 in the test on HCT-15 is 9.06 µM; with KM12, 12.7 µM (inactive); with NCI-H23 it was 15.1 µM (inactive); in the test on OVCAR-4, 10.6 µM (inactive); in the test on OVCAR-8, 12.4 µM (inactive); with PC-3, 11.9 µM (inactive). For the same molecule, the GI50 with SF-295 was 9.06 µM (inactive); with SF-539 it was 8.95 µM (inactive); with SNB-75, 8.63 µM (inactive); with U-251, 10.2 µM (inactive); in the test with UACC-62 it was 12.8 µM (inactive).

Take `O=C(O)c1ccc2c(c1)Cc1cc([N+](=O)[O-])ccc1-2`: the GI50 is > 100 µM (inactive) in the test with A549; > 100 µM (inactive) in the test on ACHN; > 100 µM (inactive) in the test with BT-549; 21.6 µM (inactive) in the test with CCRF-CEM; > 100 µM (inactive) in the test with COLO 205; > 100 µM (inactive) with DU-145. The GI50 with HCT-15 is > 100 µM; in the test on HOP-62, > 100 µM (inactive); in the test on KM12, > 100 µM (inactive); in the test on NCI-H23, > 100 µM (inactive); with OVCAR-4 it was > 100 µM (inactive); with OVCAR-8 it was 59.7 µM (inactive). For the same molecule, the GI50 with RPMI-8226 is 0.546 µM (active); in the test on SF-295, 90.8 µM (inactive); with SF-539 it was > 100 µM (inactive); in the test with SNB-75 it was > 100 µM (inactive); in the test on U-251, > 100 µM (inactive); with UACC-62, > 100 µM (inactive).

For `Nc1ccc2c(=O)cc(-c3ccc(Br)s3)[nH]c2n1`, the GI50 in the test on A549 is 5.5 µM (inactive); in the test with ACHN, 7.16 µM (inactive); with CCRF-CEM, 2.37 µM (inactive); with COLO 205, 2.5 µM (inactive); in the test with DU-145 it was 3.93 µM (inactive); in the test on HCT-15 it was 2.26 µM. The GI50 was 4.86 µM (inactive) with HOP-62; 0.673 µM (active) with KM12; 2.22 µM (inactive) with NCI-H23; > 56.6 µM (inactive) in the test with OVCAR-4; 3.52 µM (inactive) with OVCAR-8; 2.74 µM (inactive) in the test with PC-3. Besides, the GI50 in the test on RPMI-8226 was 1.89 µM (inactive); with RXF 393, 3.71 µM (inactive); in the test on SF-295 it was 2.83 µM (inactive); in the test on SF-539, 2.16 µM (inactive); in the test on SNB-75, 2.47 µM (inactive); in the test on U-251, 3.61 µM (inactive). In the test with UACC-62, the GI50 was 3.02 µM (inactive).

Turning to `O=C1Cc2c([nH]c3ccc(Br)cc23)-c2cc(Br)ccc2N1`, the GI50 in the test on A549, in the test on ACHN, in the test on BT-549, with CCRF-CEM, in the test with COLO 205 and with DU-145 was > 100 µM (inactive) in each case. For the same molecule, the GI50 in the test with HCT-15 is > 100 µM; in the test with KM12, > 100 µM (inactive); in the test on NCI-H23, > 100 µM (inactive); in the test with OVCAR-4, > 100 µM (inactive); in the test on OVCAR-8 it was > 100 µM (inactive); in the test with PC-3 it was > 100 µM (inactive). Also, the GI50 with RPMI-8226, in the test with SF-295, in the test on SF-539, in the test with U-251 and in the test on UACC-62 was > 100 µM (inactive) each time.

`CC(=O)Nc1ccc(Nc2cc(=O)n(C)c(=O)[nH]2)cc1`: the GI50 in the test with A549 was > 100 µM (inactive); in the test on ACHN it was > 100 µM (inactive); with BT-549, > 100 µM (inactive); in the test on CCRF-CEM it was > 100 µM (inactive); in the test with COLO 205, > 100 µM (inactive); with HCT-15, > 100 µM. The GI50 in the test with HOP-62, with KM12, with NCI-H23, with OVCAR-4, with OVCAR-8 and in the test with PC-3 was > 100 µM (inactive) throughout. Further, the GI50 with RPMI-8226, with RXF 393, in the test with SF-295, in the test with SF-539, in the test on SNB-75 and in the test with U-251 was > 100 µM (inactive) in each case. Further, the GI50 with UACC-62 was > 100 µM (inactive).

For the origin of these results see ChEMBL document CHEMBL1201862, “PubChem BioAssay data set” (2004).
